According to US20060281791A1, “Methods of increasing proliferation of adult mammalian cardiomyocytes through p38 map kinase inhibition” (CHILDREN'S MEDICAL CENTER CORPORATION, priority 2005, published 2006):

B1: FGF6 (protein, UniProt P10767 38-208, looked up)
Fibroblast growth factor 6: SPAGTRANNTLLDSRGWGTLLSRSRAGLAGEIAGVNWESGYLVGIKRQRRLYCNVGIGFHLQVLPDGRISGTHEENPYSLLEISTVERGVVSLFGVRSALFVAMNSKGRLYATPSFQEECKFRETLLPNNYNAYESDLYQGTYIALSKYGRVKRGSKVSPIMTVTHFLPRI
B2: CT-1 (protein, UniProt Q16619 1-201, looked up)
Cardiotrophin-1: MSRREGSLEDPQTDSSVSLLPHLEAKIRQTHSLAHLLTKYAEQLLQEYVQLQGDPFGLPSFSPPRLPVAGLSAPAPSHAGLPVHERLRLDAAALAALPPLLDAVCRRQAELNPRAPRLLRRLEDAARQARALGAAVEALLAALGAANRGPRAEPPAATASAASATGVFPAKVLGLRVCGLYREWLSRTEGDLGQLLPGGSA
B3: FGF17 (protein, UniProt O60258 23-216, looked up)
Fibroblast growth factor 17: TQGENHPSPNFNQYVRDQGAMTDQLSRRQIREYQLYSRTSGKHVQVTGRRISATAEDGNKFAKLIVETDTFGSRVRIKGAESEKYICMNKRGKLIGKPSGKSKDCVFTEIVLENNYTAFQNARHEGWFMAFTRQGRPRQASRSRQNQREAHFIKRLYQGQLPFPNHAEKQKQFEFVGSAPTRRTKRTRRPQPLT
B4: FGF4 (protein, UniProt P08620 31-206, looked up)
Fibroblast growth factor 4: APTAPNGTLEAELERRWESLVALSLARLPVAAQPKEAAVQSGAGDYLLGIKRLRRLYCNVGIGFHLQALPDGRIGGAHADTRDSLLELSPVERGVVSIFGVASRFFVAMSSKGKLYGSPFFTDECTFKEILLPNNYNAYESYKYPGMFIALSKNGKTKKGNRVSPTMKVTHFLPRL

Key:
[1] = test system: neonatal (P2) cardiomyocytes; assay: Induction of DNA synthesis (BrdU incorporation) in neonatal cardiomyocytes; format: cell-based, rat; details: BrdU labeling period 24 to 72 hours; harvested after 72 hours; optimal concentration of stimulus
Protocol: Animal experiments were performed in accordance with guidelines of Children's Hospital, Boston and UCLA. Ventricular cardiomyocytes from fetal (E19), 2-day-old (P2) and adult (250-350 g) Wistar rats (Charles River) were isolated as described with minor modifications (Engel et al. 1999; Engel et al. 2003). After digestion of fetal or neonatal hearts (0.14 mg/ml collagenase II (Invitrogen), 0.55 mg/ml pancreatin (Sigma)) cells were cultured in DMEM/F12 (GIBCO) containing 3 mM Na-pyruvate, 0.2% BSA, 0.1 mM ascorbic acid (Sigma), 0.5% Insulin-Transferrin-Selenium (100×), penicillin (100 U/ml), streptomycin (100 μg/ml), and 2 mM L-glutamine (GIBCO). Adult cardiomyocytes were cultured for 1 day in standard medium (DMEM, 25 mM Hepes, 5 mM taurine, 5 mM creatine, 2 mM L-carnitine (Sigma), 20 U/ml insulin (GIBCO), 0.2% BSA, penicillin (100 U/ml), and streptomycin (100 μg/ml)). Cells were stimulated in culture medium without BSA containing 2 mM L-glutamine. Neonatal and adult cardiomyocytes were initially cultured for 48 h in the presence of 20 μM cytosine β-D-arabinofuranoside (araC, Sigma) and 5% horse serum before stimulation to prevent proliferation of non-myocytes. Adult cardiomyocytes were incubated another 3 days with araC during stimulation. Neonatal cardiomyocytes were stimulated every day with growth factors for BrdU and H3P analyses (FGF1 and NRG-1-1β at 50 ng/ml, IL-1β at 100 ng/ml, R&D Systems, all diluted in 0.1% BSA/PBS). SB203580 and LY294002 (Calbiochem) was added every day. Adult cardiomyocytes were stimulated with fresh medium and SB203580 every 3 days.
Staining was performed as described (Supplemental Table S3) (Engel et al. 1999; Engel et al. 2003). Immune complexes were detected with ALEXA 350, ALEXA 488 or ALEXA 594-conjugated secondary antibodies (1:200, Molecular Probes). DNA was visualised with DAPI (4′,6′-diamidino-2-phenylindole, 0.5 μg/ml, Sigma). For BrdU, cells were cultured in 30 μM BrdU, incubated after permeabilization for 90 min in 2N HCl/1% triton X-100 and washed 3 times in PBS.
Eighteen to 40 hearts of 3 different litters were used for quantitative analyses of maximal areas. For immunofluorescence analyses 1,500 fetal or neonatal cardiomyocytes were counted. For adult cardiomyocyte analyses in vitro the following number of cells were counted: 500-2,000 for BrdU or Ki67, 9,000-25,000 for H3P, and 12,000-45,000 for aurora B. For in vivo MKK3bE and p38α knockout experiments 2 different litters were used. We counted 1,500-2,000 cells in each apex, left and right ventricle per heart. For adult experiments we analyzed 2 p38α^Δ/Δ and 2 p38^lox/lox hearts (24 sections each). Statistical significance was determined using Student's t test.
Several growth factors have a limited capacity to induce DNA synthesis in neonatal cardiomyocytes, including FGF1 (Pasumarthi and Field 2002). We screened 45 extracellular factors at two different concentrations for their ability to induce BrdU incorporation in neonatal (P2) cardiomyocytes. […] We confirmed previous studies showing that FGF1, IL-1β, and NRG-1-β1 are potent growth factors for neonatal cardiomyocytes (Supplemental Table S2) (Pasumarthi and Field 2002 Circ Res 90: 1044-54).
Inhibition of p38 activity by SB203580 increased BrdU incorporation 2.8-fold in neonatal cardiomyocytes stimulated with FGF1 (p<0.01). Similar results were obtained after stimulation with IL-1β and NRG-1-β1. Thus, inhibition of p38 activity augments growth factor-mediated DNA synthesis in neonatal cardiomyocytes.

p38 MAP kinase = details: cited from earlier work
[2] = cited from earlier work
[3] = test system: myocardial infarction in adult rats; assay: Fractional shortening (echocardiography) after myocardial infarction; format: in vivo, rat
Protocol: The p38 inhibitors were tested for in vivo effect following myocardial infarct. For the evaluation of left ventricular function, transthoracic echocardiogram can be performed on the rats after myocardial infarction 1 day or 14 days right. Rats can be anesthetized with 4-5% isoflurane in an induction chamber. The chest can be shaved, and the rats can be placed in dorsal decubitus position and intubated for continuous ventilation. 1-2% isoflurane can be continuously supplied via a mask. 3 electrodes can be adhered to their paws to record the electrocardiographic tracing simultaneously with the cardiac image identifying the phase of a cardiac cycle.
Echocardiograms can be performed with a commercially available echocardiography system equipped with 7.5 MHz phased-array transducer (Philips-Hewlett-Packard). The transducer can be positioned on the left anterior side of the chest. Longitudinal images of the heart can be obtained, including the left ventricle, atrium, the mitral valve and the aorta, followed by the cross-sectional images from the plane of the base to the left ventricular apical region. M-mode tracings can be obtained at the level below the tip of the mitral valve leaflets at the level of the papillary muscles. Fractional shorting (FS) can be calculated as a measure of systolic function, according to the M-mode tracing from the cross-sectional view: maximal LV end-diastolic diameter (at the time of maximal cavity dimension), minimal LV end-systolic diameter (at the time of maximum anterior motion of the posterior wall), FS (%)={(LVEDD−LVESD)/LVEDD}×100.
To determine whether p38 inhibition/FGF1 stimulation can induce cardiomyocyte proliferation in vivo and whether it has a positive effect on cardiac function after cardiac injury we created myocardial infarctions (MI) in adult rats (250 g) by coronary artery ligation. The p38 inhibitor SB203580 HCl or its vehicle, saline, were injected intraperitoneal every three days for the first month of the study. FGF1 or its carrier BSA was injected mixed with self-assembling peptides once into the infarct border zone immediately after coronary artery ligation. We injecting a total of 80 μl of 400 ng/ml FGF1, given at 3 different injection sites, into 400 mg of infarcted myocardium estimated to deliver a FGF 1 concentration to the cardiomyocytes of approximately 50 to 100 ng/ml. Animals were analyzed 24 hours, 2 weeks, and 3 month after surgery. We performed two blinded and randomized studies using 62 rats for the 2 week and 61 rats for the 3 month experiment, with at least 10 animals in each experimental group. Animals were treated with saline plus BSA (control), SB203580 HCl plus BSA (p38i), saline plus FGF1 (FGF1), or SB203580 HCl plus FGF1 (p38i/FGF1).
Animal experiments were performed in accordance with guidelines of Children's Hospital in Boston and were approved by the Harvard Medical School Standing Committee on Animals. Myocardial infarction (MI) was produced in ˜250 gm male Sprague-Dawley rats (Charles River and Harlan) as described previously (Hsieh et al., 2006). Briefly, rats were anesthetized by pentobarbital and, following tracheal intubation, the hearts were exposed via left thoracotomy. The left coronary artery was identified after pericardiotomy and was ligated by suturing with 6-0 prolene at the location ˜3mm below the left atrial appendix. For the sham operation, suturing was performed without ligation. […]

JNK = details: cited from earlier work
ERK = details: cited from earlier work
[4] = test system: LPS-stimulated human peripheral blood monocytes; details: cited from earlier work

| Molecule | % of BrdU positive neonatal cardiomyoctes [1] [%] | further results |
| --- | --- | --- |
| CNC[C@H](O)c1cccc(O)c1 [PE] | 23.7 ± 3.1 |  |
| CCc1nc(-c2ccc(OC)cc2)[nH]c1-c1ccncc1 [SB202474] |  | p38 MAP kinase inhibition (in words) (p38 MAP kinase): inactive |
| C[S+]([O-])c1ccc(-c2nc(-c3ccc(F)cc3)c(-c3ccncc3)[nH]2)cc1.Cl (stereo not shown) [SB203580 HCl] |  | water solubility [2]: water insoluble; improvement of fractional shortening ([3]; 3 month after infarction): maintained; improvement of fractional shortening ([3]; day 14 after infarction): maintained |
| COc1nccc(-c2c(-c3ccc(F)cc3)ncn2[C@H]2CC[C@H](O)CC2)n1 [SB239063] |  | selectivity over JNK (JNK): > 200 fold; selectivity over ERK (ERK): > 200 fold; p38 MAP kinase inhibition (in words) (p38 MAP kinase): potent; IL-1 and TNF-β production [4]: inhibits |
| FGF2 | 22.2 ± 1.8 |  |
| IL-1β | 41.3 ± 3.2 |  |
| TGFβ1 | 17.4 ± 2.2 |  |
| B1 | 47.3 ± 3.3 |  |
| B2 | 11.2 ± 1.1 |  |
| B3 | 31.1 ± 1.7 |  |
| B4 | 46.5 ± 3.9 |  |
